In publication doi:10.1101/2021.11.05.467463v1 (biorxiv, 2021):
≈ marks a conversion by molar mass, not a printed value.

Assays:
PfPKG [1] = target: T1, PfPKG (Plasmodium falciparum, UniProt Q8I719); assay: in vitro PfPKG enzyme inhibition assay; format: biochemical; settings: […] compound
[2] = mouse, microsomes
physchem = settings: water
PfPKG [3] = target: T1, PfPKG; assay: in vitro PfPKG enzyme inhibition assay; format: biochemical; settings: […] compound; remark: listed apart in the source
PfPKG [4] = target: T1, PfPKG; assay: in vitro PfPKG enzyme inhibition assay; format: biochemical
CYP3A4 = CYP3A4 (Homo sapiens, UniProt P08684); assay: in vitro CYP3A4 inhibition; format: biochemical
CYP3A4, sequence (P08684 2-503): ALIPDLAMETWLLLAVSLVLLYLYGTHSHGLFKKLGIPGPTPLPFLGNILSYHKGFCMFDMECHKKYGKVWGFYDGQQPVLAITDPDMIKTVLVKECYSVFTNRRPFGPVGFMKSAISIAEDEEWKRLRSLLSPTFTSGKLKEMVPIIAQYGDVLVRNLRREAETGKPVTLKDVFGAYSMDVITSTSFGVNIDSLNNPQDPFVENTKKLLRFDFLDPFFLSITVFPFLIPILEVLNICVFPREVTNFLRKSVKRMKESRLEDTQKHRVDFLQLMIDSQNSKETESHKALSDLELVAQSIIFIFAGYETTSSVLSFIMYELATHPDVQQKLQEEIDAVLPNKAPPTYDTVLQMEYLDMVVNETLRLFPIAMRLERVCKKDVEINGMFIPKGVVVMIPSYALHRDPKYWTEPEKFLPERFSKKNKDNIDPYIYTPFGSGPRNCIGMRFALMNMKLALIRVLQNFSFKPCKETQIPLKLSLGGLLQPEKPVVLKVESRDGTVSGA

T1 sequence (Q8I719 whole entry): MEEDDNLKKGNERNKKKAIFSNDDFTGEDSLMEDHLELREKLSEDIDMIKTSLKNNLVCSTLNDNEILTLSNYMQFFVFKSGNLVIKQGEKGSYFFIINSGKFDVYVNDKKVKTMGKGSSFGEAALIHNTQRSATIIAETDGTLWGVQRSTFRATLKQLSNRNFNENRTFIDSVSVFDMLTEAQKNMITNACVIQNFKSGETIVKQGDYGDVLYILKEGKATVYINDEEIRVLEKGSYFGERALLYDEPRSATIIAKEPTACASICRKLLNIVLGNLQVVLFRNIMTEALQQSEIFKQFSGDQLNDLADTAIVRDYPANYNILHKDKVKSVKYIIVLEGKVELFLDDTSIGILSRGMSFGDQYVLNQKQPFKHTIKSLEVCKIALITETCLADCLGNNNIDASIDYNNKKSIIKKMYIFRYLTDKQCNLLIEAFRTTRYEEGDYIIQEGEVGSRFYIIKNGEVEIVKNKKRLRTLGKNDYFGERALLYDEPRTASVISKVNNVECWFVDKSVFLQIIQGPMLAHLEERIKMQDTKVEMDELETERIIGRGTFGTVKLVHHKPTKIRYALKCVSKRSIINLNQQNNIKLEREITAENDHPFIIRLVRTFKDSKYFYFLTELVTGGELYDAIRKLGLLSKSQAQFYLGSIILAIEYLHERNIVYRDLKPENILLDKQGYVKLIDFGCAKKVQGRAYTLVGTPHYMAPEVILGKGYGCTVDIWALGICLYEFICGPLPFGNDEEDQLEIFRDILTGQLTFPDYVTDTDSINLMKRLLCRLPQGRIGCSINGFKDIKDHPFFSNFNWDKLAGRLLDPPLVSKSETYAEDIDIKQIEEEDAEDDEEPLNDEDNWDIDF

For `Cc1cn(-c2ccnc(N[C@@H]3CCN(C(=O)c4nccs4)C3)n2)c(-c2ccccc2Cl)n1` [18b], the “% inhib @ 1 μM” value (PfPKG [1]) was 47%.
With `O=C(c1nccs1)N1CC[C@@H](Nc2nccc(-n3cc(C4CC4)nc3-c3cccc(Cl)c3)n2)C1` [14b] the “MLM t1/2” value [2] was under 2 min and the solubility (physchem) was 28 µM (≈ 13.8 µg/mL).
With `Cc1cn(-c2ccnc(N[C@H]3CCN(C(=O)c4nccs4)C3)n2)c(-c2ccccc2)n1` [10c] the “% inh @ 1 μM” value (PfPKG [3]) was 4%.
For `Cc1cn(-c2ccnc(NCC3CCCN3C(=O)c3nccs3)n2)c(-c2ccccc2)n1` (racemic) [10f], the “% inh @ 1 μM” value (PfPKG [3]) was 3%.
Work on `CN1CCC(c2cc(-c3ccc(F)cc3)c(-c3ccncc3)[nH]2)CC1` [compound 5, pyrrole 5] yielded an IC50 (PfPKG [4]) of 22 nM.
With `O=C(c1nccs1)N1CC[C@@H](Nc2nccc(-n3cc(C4CC4)nc3-c3ccccc3)n2)C1` [14a] the “MLM t1/2” value [2] was under 2 min and the solubility (physchem) was 92 µM (≈ 42.1 µg/mL).
For `Cc1cn(-c2ccnc(NC3CCCN(C(=O)c4nccs4)C3)n2)c(-c2ccccc2)n1` (racemic) [10d], the “% inh @ 1 μM” value (PfPKG [3]) was 4%.
For `Cc1cn(-c2ccnc(NC3CCN(C(=O)c4nccs4)CC3)n2)c(-c2ccccc2)n1` [10e], the “% inh @ 1 μM” value (PfPKG [3]) was 5%.
With `Cc1cn(-c2ccnc(N[C@@H]3CCN(C(=O)c4nccs4)C3)n2)c(-c2ccccc2)n1` [10a] the IC50 (CYP3A4) was 940 nM.
